Assay results from US10472358B2, “1H-pyrrolo[2,3-c]pyridin-7(6H)-ones and pyrazolo[3,4-c]pyridin-7(6H)-ones as inhibitors of BET proteins” (Incyte Corporation, priority 2014, dated 2019).

System: KMS.12.BM cells
Experiment: KMS.12.BM cell viability assay (Cell Titer-GLO, ATP quantitation)
Format: cell-based
Details: KMS-12-BM, 72 h; human myeloma cells, 3 days, concentration required for 50% cell death
Summary of the method: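 KMS.12.BM human myeloma cells (5000/well, RPMI with 10% FBS) were exposed to a compound concentration range for 3 days. Viable cells were measured by CellTiter-Glo ATP luminescence. IC50 is the concentration giving 50% cell death relative to untreated cells.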

Cn1cc(-c2cc(S(C)(=O)=O)cc3c2OC2(CC2)C(=O)N3)c2cn[nH]c2c1=O [Example 65, 8-(6-methyl-7-oxo-6,7-dihydro-1H-pyrazolo[3,4-c]pyridin-4-yl)-6-(methylsulfonyl)spiro[1,4-benzoxazine-2,1′-cyclopropan]-3(4H)-one]
IC50: ≤ 1000 nM
